From US20250163119A1, “COMPOUNDS FOR THE TREATMENT OF DIABETES OR OBESITY” (Eli Lilly and Company, priority 2023, published 2025)
*1 amine or outer side, *2 acyl side, *3 side chain or, on linkers, in order; H or OH if unused. Where a SMILES comes first, the peptide text is derived from it. Bridges are numbered along the chain shown (N, C = ends). Roman numbers before positions name the chains, in order. Side-chain parts run from the residue outwards. [ ]: non-standard residue; d: D form. The star is where a group is joined. C20 diacid = O=C(O)CCCCCCCCCCCCCCCCCCC(=O)*; C18 diacid = O=C(O)CCCCCCCCCCCCCCCCC(=O)*; γGlu = O=C(O)[C@H](CCC(=O)[*:2])N[*:1]; εLys = N[C@@H](CCCCN[*:1])C(=O)[*:2]; αMeL = CC(C)C[C@](C)(N)C(=O)O; AEEA = NCCOCCOCC(=O)O; Aib = CC(C)(N)C(=O)O; Ahx = NCCCCCC(=O)O

Legend:
human CRHR2 = target: T1, human CRHR2 (Homo sapiens, UniProt Q13324); assay: Human CRHR2 cAMP assay (HTRF) in HEK293 cells stably expressing human CRHR2; type: cell-based; conditions: HEK293 cells overexpressing human CRHR2; relative EC50, maximum 10 nM human UCN2; mean ± SE; read-out: hCRHR2 cAMP EC50 (pM, ± SE)
T1 construct: expressed in transfected cells
T1 sequence (Q13324 1-438 isoform Q13324-2): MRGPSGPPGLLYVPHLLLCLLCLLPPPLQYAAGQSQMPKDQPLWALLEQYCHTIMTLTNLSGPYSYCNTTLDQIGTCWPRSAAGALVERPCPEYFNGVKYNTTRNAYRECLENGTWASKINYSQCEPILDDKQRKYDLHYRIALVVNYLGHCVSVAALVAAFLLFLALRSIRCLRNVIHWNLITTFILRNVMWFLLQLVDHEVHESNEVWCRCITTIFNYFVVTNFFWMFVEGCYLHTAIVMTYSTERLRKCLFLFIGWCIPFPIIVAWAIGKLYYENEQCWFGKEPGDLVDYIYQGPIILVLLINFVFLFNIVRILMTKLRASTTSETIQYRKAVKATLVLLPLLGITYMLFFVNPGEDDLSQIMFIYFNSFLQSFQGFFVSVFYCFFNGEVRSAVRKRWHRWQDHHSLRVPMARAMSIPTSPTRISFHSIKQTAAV
Procedure: (§1) The corticotropin-releasing hormone (CRH) receptor 1 and 2 (CRHR1 and CRHR2) are GPCRs that were functionally coupled to Gs proteins. Stimulation of these receptors results in an increased production of intracellular cAMP, which can be detected using standard in vitro technologies. In vitro activity of peptides was measured by the amount of cAMP formed in human CRHR1 and CRHR2 overexpressed cells.
(§2) Human CRHR1 and CRHR2 receptors were stably expressed in human embryonic kidney cells (HEK293) under control of a pcDNA expression vector. The HEK293 cell line was cultured in DMEM 1× (Gibco, 93-0152DK) supplemented with 10% FBS, 1 mM sodium pyruvate, 1×MEM NEAA, 1× GlutaMAX and 10 mM HEPES. The plasmids of human CRHR1-pQCXIP (T7364) and human CRHR2b-R2683puro (T16761) DNA were transfected into HEK293 cells using Lipo fectAMINE 3000 Transfection reagent (Invitrogen, L3000001). After 20 days under selection, the mRNA levels from different clones were measured to confirm the expression of human CRHR1 and CRHR2 genes. To determine the function of over-expressed CRHR cells, the intracellular cAMP levels in response to human UCN1 and UCN2 were measured and compared to the expression of CRHR1 and CRHR2 mRNA in each clone.
(§3) Human CRHR1 cells were cultured in DMEM 1× (Gibco, 93-0152DK) supplemented with 10% FBS, 1 mM sodium pyruvate, 1×MEM NEAA, 1×GlutaMAX, 10 mM HEPES, and 800 μg/ml G418. Human CRHR2 cells were cultured at the same media (DMEM 1×, 10% FBS, 1 mM sodium pyruvate, 1×MEM NEAA, 1×GlutaMAX, 10 mM HEPES) in the presence of 0.5 ug/mL puromycin. Cultured cells were grown to 90% confluency and harvested. The cells were frozen at 10×10e6/ml in a mixture of […] fetal bovine serum plus 7% DMSO and stored in liquid nitrogen until use.
(§4) On the day of the assay, the frozen cells were thawed and diluted in assay buffer (Phenol Red free MEM (Corning, 17-305-CV, lot #32121010), 0.1% Casein (Sigma C4765, lot #SLCG2120), 5 mM HEPES pH 7.4 containing 0.25 mM IBMX). 10 ul of human CRHR1 cells (25,000 cells) or 10 μL of human CRHR2 cells (5,000 cells) were dispensed into each well of white poly-D-lysine coated 384-well plates (Corning cat #354661). Test compounds diluted in DMSO were added (200 nL/well) in a 1:3 dilution series using ECHO acoustic liquid handler (Beckman). The mixture of cells and test compounds were incubated at 37° C. for 1 hour for the hCRHR1 plate, while the CRHR2 plates were incubated at room temperature for 30 min.
(§5) The amount of intracellular cAMP was quantitated using HTRF technology (Homogeneous Time Resolved Fluorescence; Cisbio) as per vendor instructions. Briefly, 10 uL CAMP-d2 conjugate and 10 uL anti-CAMP-cryptate conjugate in lysis buffer were incubated with the treated cells at room temperature for 60 min. The HTRF signal was immediately detected using an Envision plate reader (Perkin-Elmer) to calculate the ratio of fluorescence at 665 to 620 nm.
(§6) Raw fluorescence data for concentration curves of the peptides in Table 2 and Table 3 were converted to cAMP amount (pmol/well) using a cAMP standard curve generated for each experiment.

human CRHR1 = target: T2, human CRHR1 (Homo sapiens, UniProt P34998); assay: Human CRHR1 cAMP assay (HTRF) in HEK293 cells stably expressing human CRHR1; type: cell-based; conditions: HEK293 cells overexpressing human CRHR1; relative EC50, maximum 66 nM human UCN1; mean ± SE; read-out: hCRHR1 cAMP EC50 (pM, ± SE)
T2 construct: expressed in transfected cells
T2 sequence (P34998 24-415): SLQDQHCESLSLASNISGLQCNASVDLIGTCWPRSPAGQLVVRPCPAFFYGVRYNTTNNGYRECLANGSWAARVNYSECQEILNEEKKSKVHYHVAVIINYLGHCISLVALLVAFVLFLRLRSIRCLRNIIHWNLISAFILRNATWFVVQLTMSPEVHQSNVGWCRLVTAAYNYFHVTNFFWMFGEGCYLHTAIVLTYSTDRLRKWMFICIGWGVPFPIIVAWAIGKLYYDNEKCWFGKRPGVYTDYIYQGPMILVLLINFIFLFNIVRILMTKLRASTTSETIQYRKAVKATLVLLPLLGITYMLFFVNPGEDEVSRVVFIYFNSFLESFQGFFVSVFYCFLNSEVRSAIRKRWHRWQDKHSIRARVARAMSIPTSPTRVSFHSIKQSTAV
Procedure: as §1, §2, §3, §4, §5, §6

EC50 (human CRHR2) [pM]	EC50 (human CRHR1) [pM]	Compound
5.4 ± 0.5	> 1e+07	CC[C@H](C)[C@H](NC(C)=O)C(=O)N[C@H](C(=O)N[C@H](C(=O)N[C@@H](CO)C(=O)N[C@@](C)(CC(C)C)C(=O)N[C@@H](CC(=O)O)C(=O)N[C@@H](C(=O)N1CCC[C@H]1C(=O)N[C@H](C(=O)NCC(=O)N[C@@](C)(CC(C)C)C(=O)N[C@@H](CC(C)C)C(=O)N[C@@H](CCC(N)=O)C(=O)N[C@H](C(=O)N[C@@H](CCCCN)C(=O)N[C@@H](CC(C)C)C(=O)N[C@@H](CCC(=O)O)C(=O)N[C@@H](CCC(N)=O)C(=O)N[C@@H](CCC(=O)O)C(=O)N[C@@H](CCCNC(=N)N)C(=O)N[C@@H](C)C(=O)N[C@@H](CCC(=O)O)C(=O)N[C@@H](CCCCN)C(=O)N[C@@H](C)C(=O)N[C@@H](CCCNC(=N)N)C(=O)N[C@@H](CCC(N)=O)C(=O)N[C@@H](CCC(N)=O)C(=O)N[C@@H](C)C(=O)N[C@@H](CCCCNC(=O)COCCOCCNC(=O)CC[C@H](NC(=O)CC[C@H](NC(=O)CCCCCCCCCCCCCCCCCCC(=O)O)C(=O)O)C(=O)O)C(=O)N[C@@H](CCC(=O)O)C(=O)N[C@@H](CC(N)=O)C(=O)N[C@H](C(=O)N[C@@H](CCC(=O)O)C(=O)N[C@H](C(=O)N[C@@H](CC(C)C)C(=O)N[C@@H](C)C(=O)N[C@@H](CCC(N)=O)C(=O)N[C@H](C(N)=O)C(C)C)[C@@H](C)CC)[C@@H](C)O)[C@@H](C)CC)[C@@H](C)O)C(C)C)[C@@H](C)O)C(C)C [SEQ ID NO: 44, Ac-IVTS αMeL D (D-Val) PTG αMeL LQIKLEQERAEKARQQAK((2-[2-(2-Amino-ethoxy)-ethoxy]-acetyl)-(γE)2-CO-(CH2)18-CO2H)ENTEILAQV-NH2] (Ac-IVTS[αMeL]D[dV]PTG[αMeL]LQIKLEQERAEKARQQAK([AEEA-γGlu-γGlu-C20 diacid])ENTEILAQV-NH2)
10.1 ± 2.5	> 1e+07	CC[C@H](C)[C@H](NC(=O)[C@H](CCC(=O)O)NC(=O)[C@H](C)NC(=O)[C@H](C)NC(=O)[C@H](CCC(=O)O)NC(=O)[C@H](CCCCNC(=O)CC[C@H](NC(=O)CNC(=O)[C@H](CCCCN)NC(=O)[C@H](CCC(=O)O)NC(=O)[C@H](CCCCN)NC(=O)[C@H](CCC(=O)O)NC(=O)[C@H](CCCCN)NC(=O)[C@H](CCC(=O)O)NC(=O)CCCCCCCCCCCCCCCCCCC(=O)O)C(=O)O)NC(=O)[C@H](C)NC(=O)[C@H](CCC(N)=O)NC(=O)[C@H](CCC(N)=O)NC(=O)[C@H](CCCNC(=N)N)NC(=O)[C@H](C)NC(=O)[C@H](CCCCN)NC(=O)[C@H](CCC(=O)O)NC(=O)[C@H](C)NC(=O)[C@H](CCCNC(=N)N)NC(=O)[C@H](CCC(=O)O)NC(=O)[C@H](CCC(N)=O)NC(=O)[C@H](CCC(=O)O)NC(=O)[C@H](CC(C)C)NC(=O)[C@@H](NC(=O)[C@H](CCCCN)NC(=O)[C@H](CCC(N)=O)NC(=O)[C@H](CC(C)C)NC(=O)[C@](C)(CC(C)C)NC(=O)C(C)(C)NC(=O)[C@@H](NC(=O)[C@@H]1CCCN1C(=O)[C@@H](NC(=O)[C@H](CC(=O)O)NC(=O)[C@](C)(CC(C)C)NC(=O)[C@H](CO)NC(=O)[C@@H](NC(=O)[C@@H](NC(=O)[C@@H](NC(=O)[C@H](CO)NC(=O)[C@@H]1CCCN1C(=O)[C@H](CO)NC(=O)CNC(C)=O)[C@@H](C)CC)C(C)C)[C@@H](C)O)C(C)C)[C@@H](C)O)[C@@H](C)CC)C(=O)N[C@@H](CC(C)C)C(=O)N[C@@H](C)C(=O)N[C@@H](CCC(N)=O)C(=O)N[C@H](C(N)=O)C(C)C [SEQ ID NO: 6, Ac-GSPSIVTS αMeL DVPT Aib αMeL LQKILEQERAEKARQQAK(γE-GKEKEKE-CO-(CH2)18-CO2H)EAAEILAQV-NH2]
10.7 ± 0.8	> 1e+07	Ac-GSPSIVTS[αMeL]DVPT[Aib][αMeL]LQKILEQERAEKARQQAK([γGlu-AEEA-Ahx-C20 diacid])EAAEILAQV-NH2 [SEQ ID NO: 5, Ac-GSPSIVTS αMeL DVPT Aib αMeL LQKILEQERAEKARQQAK(γE-(2-[2-(2-Amino-ethoxy)-ethoxy]-acetyl)-Ahx-CO-(CH2)18-CO2H)EAAEILAQV-NH2]
11.3 ± 0.4	> 1e+07	I: Ac-GSPSIVTS[αMeL]DVPT[Aib][αMeL]LQKILEQERAEKARQQAKEAAEILAQV-NH2 / II: {C20 diacid}-PPPPPP[γGlu] (amide I:33-II:C) [SEQ ID NO: 15, Ac-GSPSIVTS αMeL DVPT Aib αMeL LQKILEQERAEKARQQAK(γE-PPPPPP-CO-(CH2)18-CO2H)EAAEILAQV-NH2]
23.6 ± 2.9	> 1e+07	H-GSPSIVTS[αMeL]DVPT[Aib][αMeL]LQKILEQERAEKARQQATEAAEILAQV-NH2 [SEQ ID NO: 27]
16.3 ± 1.3	> 1e+07	Ac-GSPSIVTS[αMeL]DVPT[Aib][αMeL]LQKILEQERAEKARQQAK([γGlu-AEEA-εLys-C18 diacid])EAAEILAQV-NH2 [SEQ ID NO: 21, Ac-GSPSIVTS αMeL DVPT Aib αMeL LQKILEQERAEKARQQAK(γE-(2-[2-(2-Amino-ethoxy)-ethoxy]-acetyl)-ϵK-CO-(CH2)16-CO2H)EAAEILAQV-NH2]
11.1 ± 0.5	> 1e+07	Ac-GSPSIVTS[αMeL]DVPT[Aib][αMeL]LQKILEQERAEKARQQAK([γGlu-εLys-AEEA-εLys-C20 diacid])EAAEILAQV-NH2 [SEQ ID NO: 19, Ac-GSPSIVTS αMeL DVPT Aib αMeL LQKILEQERAEKARQQAK(γE-EK-(2-[2-(2-Amino-ethoxy)-ethoxy]-acetyl)-ϵK-CO-(CH2)18-CO2H)EAAEILAQV-NH2]
